Reference: paper PMC2822059 (Nature chemical biology, 2010)

Tests used:
H976Y HDAC4 = conditions: mutant versus wild type; cited from earlier work
[1] = tested on: acetylated alpha-tubulin (AcTub), Jurkat cells; test: Immunoblot for acetylated alpha-tubulin in treated cells; format: cell-based, human; conditions: 24 hours, time- and dose-dependent
[2] = tested on: acetylated histones (AcH3K18), Jurkat cells; test: Immunoblot for acetylated histones in treated cells; format: cell-based, human; conditions: 24 hours, time- and dose-dependent

Compound	increased affinity for H976Y HDAC4 gain of function mutant (H976Y HDAC4) [fold]	hyperacetylation of HDAC6 target α-tubulin [1]	hyperacetylation of Class I deacetylase targets (bulk histones) [2]
O=C(/C=C/c1ccc(CN(CCO)CCc2c[nH]c3ccccc23)cc1)NO [LAQ-824]	100	–	–
O=C(/C=C/c1ccc(C(=O)N/N=C/c2ccc(O)c(O)c2O)cc1)NO [pandacostat]	–	confers hyperacetylation	confers hyperacetylation
